# Data published in US4696933A, “Guanidine compounds useful as histamine H2-antagonists” (ICI Americas Inc., priority 1981, dated 1987).
# Legend:
# [1] = intravenous toxicity in conscious mice; type: in vivo; conditions: four conscious mice, one hundred times the dose giving approximate 50% inhibition of gastric secretion in the anaesthetised rat
# Procedure: (§1) No overt toxicity or side effects were noted during the rat or dog tests. The compound 5-[4-(2-allylguanidino)-1,2,3-triazol-2-yl]valeramide was administered intravenously to groups of two anaesthetised rats and four conscious mice at doses which were respectively ten times and one hundred times the dose, in mg/kg., which produced an approximate 50% inhibition of gastric secretion in the anaesthetised rat.
# [2] = intravenous toxicity in anaesthetised rats; type: in vivo; conditions: two anaesthetised rats, ten times the dose giving approximate 50% inhibition of gastric secretion in the anaesthetised rat
# Procedure: as §1
smiles,measurement,setting,value
"C=CCN=C(N)Nc1cnn(CCCCC(N)=O)n1.O=C(O)/C=C\C(=O)O [Example 8, 5-(4-[2-allylguanidino]-1,2,3-triazol-2-yl)valeramide maleate]",toxic symptoms,[1],No toxic symptoms were noted
same,toxic symptoms,[2],No toxic symptoms were noted
